Laboratory results published in US9556135B2, “Amino-dihydrothiazine and amino-dioxido dihydrothiazine compounds as beta-secretase antagonists and methods of use” (Amgen Inc., priority 2012, dated 2017).

Tested on: Abeta 40
Assay: In vivo inhibition of beta-secretase: Abeta 40 reduction in CSF and brain of the rat
Settings: 10 mpk (unless otherwise noted), after 4 hrs
Text: In Vivo Inhibition of Beta-Secretase
Several animal models, including mouse, rat, dog, and monkey, may be used to screen for inhibition of beta-secretase activity in vivo following administration of a test compound sample. Animals used in this invention can be wild type, transgenic, or gene knockout animals. […] One to twenty-four hours following the administration of compound, animals are sacrificed, and brains as well as cerebrospinal fluid (CSF) and plasma are removed for analysis of A-beta levels and drug or test compound concentrations (Dovey et al., 2001, Journal of Neurochemistry, 76, 173-181) Beginning at time 0, animals are administered by oral gavage, or other means of delivery such as intravenous injection, an inhibitory test compound of up to 100 mg/kg in a standard, conventional formulation, such as 2% hydroxypropyl methylcellulose, 1% Tween80. A separate group of animals receive 2% hydroxypropyl methylcellulose, 1% Tween80 alone, containing no test compound, and serve as a vehicle-control group. At the end of the test period, animals are sacrificed and brain tissues, plasma or cerebrospinal fluid are collected. Brains are either homogenized in 10 volumes (w/v) of 0.2% diethylamine (DEA) in 50 mM NaCl (Best et al., 2005, Journal of Pharmacology and Experimental Therapeutics, 313, 902-908), or in 10 volumes of 0.5% TritonX-100 in Tris-buffered saline (pH at about 7.6). Homogenates are centrifuged at 355,000 g, 4° C. for 30 minutes. CSF or brain supernatants are then analyzed for the presence of A-beta peptide by specific sandwich ELISA assays based on ECL (Electrochemiluminescence) technology. For example, rat Abeta40 is measured using biotinylated-4G8 (Signet) as a capture antibody and Fab40 (an in-house antibody specific to the C-terminal of Abeta40) as a detection antibody.
Actual vehicles used: Oral: 2% HPMC, 1% Tween80, pH 2.2

Structure (SMILES)	% reduction of rat CSF levels at 10 pmk [%]	% reduction of rat brain levels at 10 mpk [%]
CC1(C)C(N)=N[C@](CF)(c2cc(NC(=O)c3ccc(Cl)cn3)ccc2F)CS1(=O)=O [Example 193, (S)—N-(3-(5-amino-3-(fluoromethyl)-6,6-dimethyl-1,1-dioxido-3,6-dihydro-2H-1,4-thiazin-3-yl)-4-fluorophenyl)-5-chloropicolinamide]	57	30
Cc1cc(Cl)cnc1C(=O)Nc1ccc(F)c([C@]2(CF)CS(=O)(=O)C3(CC3)C(N)=N2)c1 [Example 216, (S)—N-(3-(8-amino-6-(fluoromethyl)-4,4-dioxido-4-thia-7-azaspiro[2.5]oct-7-en-6-yl)-4-fluorophenyl)-5-chloro-3-methylpicolinamide]	57	14
COc1cnc2c(Nc3cnc(F)c([C@]4(C)CS(=O)(=O)C(C)(C)C(N)=N4)c3)ncc(F)c2c1 [Example 219, N-(5-((3R)-5-amino-3,6,6-trimethyl-1,1-dioxido-3,6-dihydro-2H-1,4-thiazin-3-yl)-6-fluoro-3-pyridinyl)-5-fluoro-3-methoxy-1,7-naphthyridin-8-amine]	42	9
COc1cnc2c(Nc3cnc(F)c([C@]4(C)CS(=O)(=O)C(C)(C)C(N)=N4)c3)nccc2n1 [Example 222, N-(5-((3R)-5-amino-3,6,6-trimethyl-1,1-dioxido-3,6-dihydro-2H-1,4-thiazin-3-yl)-6-fluoro-3-pyridinyl)-2-methoxypyrido[3,4-b]pyrazin-5-amine]	65	49
CC1(C)C(N)=N[C@](C)(c2cc(Nc3ncnc4cc(Cl)cnc34)ccc2F)C(F)S1(=O)=O (stereo partly drawn) [Example 228, N-(3-((3R)-5-amino-2-fluoro-3,6,6-trimethyl-1,1-dioxido-3,6-dihydro-2H-1,4-thiazin-3-yl)-4-fluorophenyl)-7-chloropyrido[3,2-d]pyrimidin-4-amine]	67	58
CC1(C)C(N)=N[C@](C)(c2cc(Nc3ncnc4cc(C#N)cnc34)ccc2F)C(F)S1(=O)=O (stereo partly drawn) [Example 229, 4-((3-((3R)-5-amino-2-fluoro-3,6,6-trimethyl-1,1-dioxido-3,6-dihydro-2H-1,4-thiazin-3-yl)-4-fluorophenyl)amino)pyrido[3,2-d]pyrimidine-7-carbonitrile]	61	43
CC1(C)C(N)=N[C@](CF)(c2cc(Nc3ncc(F)c4cc(Cl)cnc34)ccc2F)CS1(=O)=O [Example 233, N-(3-((3S)-5-amino-3-(fluoromethyl)-6,6-dimethyl-1,1-dioxido-3,6-dihydro-2H-1,4-thiazin-3-yl)-4-fluorophenyl)-3-chloro-5-fluoro-1,7-naphthyridin-8-amine]	25	0
CC1(C)C(N)=N[C@](CF)(c2cc(Nc3ncnc4cc(Cl)cnc34)ccc2F)CS1(=O)=O [Example 235, N-(3-((3S)-5-amino-3-(fluoromethyl)-6,6-dimethyl-1,1-dioxido-3,6-dihydro-2H-1,4-thiazin-3-yl)-4-fluorophenyl)-7-chloropyrido[3,2-d]pyrimidin-4-amine]	38	14
CC1(C)C(N)=N[C@](CF)(c2cc(Nc3ncnc4cc(C#N)cnc34)ccc2F)CS1(=O)=O [Example 236, 4-((3-((3S)-5-amino-3-(fluoromethyl)-6,6-dimethyl-1,1-dioxido-3,6-dihydro-2H-1,4-thiazin-3-yl)-4-fluorophenyl)amino)pyrido[3,2-d]pyrimidine-7-carbonitrile]	35	1
CC#CCOc1cnc(C(=O)Nc2ccc(F)c([C@]3(C)CS(=O)(=O)[C@@](C)(F)C(N)=N3)c2)cn1 [Example 317, N-(3-((3R,6R)-5-amino-6-fluoro-3,6-dimethyl-1,1-dioxido-3,6-dihydro-2H-1,4-thiazin-3-yl)-4-fluorophenyl)-5-(2-butyn-1-yloxy)-2-pyrazinecarboxamide]	23	0
Cc1cc(OC(F)F)cnc1C(=O)Nc1ccc(F)c([C@]2(C)CS(=O)(=O)[C@@](C)(F)C(N)=N2)c1 [Example 321, N-(3-((3R,6R)-5-amino-6-fluoro-3,6-dimethyl-1,1-dioxido-3,6-dihydro-2H-1,4-thiazin-3-yl)-4-fluorophenyl)-5-(difluoromethoxy)-3-methyl-2-pyridinecarboxamide]	44	37
Cc1cc(C#N)cnc1C(=O)Nc1ccc(F)c([C@]2(C)CS(=O)(=O)[C@@](C)(F)C(N)=N2)c1 [Example 324, N-(3-((3R,6R)-5-amino-6-fluoro-3,6-dimethyl-1,1-dioxido-3,6-dihydro-2H-1,4-thiazin-3-yl)-4-fluorophenyl)-5-cyano-3-methyl-2-pyridinecarboxamide]	44	29
CC1(C)C(N)=N[C@](C)(c2cc(NC(=O)c3ncc(Cl)cc3F)ccc2F)C(F)S1(=O)=O (stereo partly drawn) [Example 329, N-(3-((3R)-5-amino-2-fluoro-3,6,6-trimethyl-1,1-dioxido-3,6-dihydro-2H-1,4-thiazin-3-yl)-4-fluorophenyl)-5-chloro-3-fluoro-2-pyridinecarboxamide]	27	20
Cc1cc(OC(F)F)cnc1C(=O)Nc1ccc(F)c([C@@]2(C)N=C(N)C(C)(C)S(=O)(=O)C2F)c1 (stereo partly drawn) [Example 330, N-(3-((3R)-5-amino-2-fluoro-3,6,6-trimethyl-1,1-dioxido-3,6-dihydro-2H-1,4-thiazin-3-yl)-4-fluorophenyl)-5-(difluoromethoxy)-3-methyl-2-pyridinecarboxamide]	78	72
Cc1cc(Cl)cnc1C(=O)Nc1ccc(F)c([C@@]2(C)N=C(N)C(C)(C)S(=O)(=O)C2F)c1 (stereo partly drawn) [Example 331, N-(3-((3R)-5-amino-2-fluoro-3,6,6-trimethyl-1,1-dioxido-3,6-dihydro-2H-1,4-thiazin-3-yl)-4-fluorophenyl)-5-chloro-3-methyl-2-pyridinecarboxamide]	67	59
CC#CCOc1cnc(C(=O)Nc2ccc(F)c([C@@]3(C)N=C(N)C(C)(C)S(=O)(=O)C3F)c2)cn1 (stereo partly drawn) [Example 332, N-(3-((3R)-5-amino-2-fluoro-3,6,6-trimethyl-1,1-dioxido-3,6-dihydro-2H-1,4-thiazin-3-yl)-4-fluorophenyl)-5-(2-butyn-1-yloxy)-2-pyrazinecarboxamide]	24	11
CC1(C)C(N)=N[C@](C)(c2cc(NC(=O)c3cnc(OCC(F)(F)F)cn3)ccc2F)CS1(=O)=O [Example 346, N-(3-((3R)-5-amino-3,6,6-trimethyl-1,1-dioxido-3,6-dihydro-2H-1,4-thiazin-3-yl)-4-fluorophenyl)-5-(2,2,2-trifluoroethoxy)-2-pyrazinecarboxamide]	69	48
Cc1cc(Cl)cnc1C(=O)Nc1cnc(F)c([C@]2(C)CS(=O)(=O)C3(CCC3)C(N)=N2)c1 [Example 359, N-(5-((7R)-9-amino-7-methyl-5,5-dioxido-5-thia-8-azaspiro[3.5]non-8-en-7-yl)-6-fluoro-3-pyridinyl)-5-chloro-3-methyl-2-pyridinecarboxamide]	55	24
COc1cnc(C(=O)Nc2ccc(F)c([C@]3(CF)CS(=O)(=O)C(C)(C)C(N)=N3)c2)c(C)c1 [Example 377, N-(3-((3S)-5-amino-3-(fluoromethyl)-6,6-dimethyl-1,1-dioxido-3,6-dihydro-2H-1,4-thiazin-3-yl)-4-fluorophenyl)-5-methoxy-3-methyl-2-pyridinecarboxamide]	68	53
CC1(C)C(N)=N[C@](CF)(c2cc(Nc3nccc4cc(C#N)cnc34)ccc2F)CS1(=O)=O [Example 387, 8-((3-((3S)-5-amino-3-(fluoromethyl)-6,6-dimethyl-1,1-dioxido-3,6-dihydro-2H-1,4-thiazin-3-yl)-4-fluorophenyl)amino)-1,7-naphthyridine-3-carbonitrile]	43	27
Cc1cc(Cl)cnc1C(=O)Nc1ccc(F)c([C@]2(C)CS(=O)(=O)[C@@](C)(F)C(N)=N2)c1 [Example 388, N-(3-((3R,6R)-5-amino-6-fluoro-3,6-dimethyl-1,1-dioxido-3,6-dihydro-2H-1,4-thiazin-3-yl)-4-fluorophenyl)-5-chloro-3-methyl-2-pyridinecarboxamide]	33	7
